According to patent US20250002489A1, “BIFUNCTIONAL COMPOUNDS FOR DEGRADING ITK VIA UBIQUITIN PROTEOSOME PATHWAY” (NURIX THERAPEUTICS, INC., priority 2021, published 2025):

Legend:
[1] = target: T1, ITK (C-terminal HiBiT-tagged Molt4 cells) (Homo sapiens, UniProt Q08881); assay: ITK Degradation HiBiT Assay; format: cell-based; conditions: for DC50: 4 hrs incubation, best fit IC50 used as DC50; for Dmax: MOLT-4, 4 hrs incubation
T1 construct: expressed in transfected cells; host or cells: Molt4 (ATCC CRL-1552), monoclonal clone 1C10, engineered to express HiBiT-tagged ITK
T1 sequence (Q08881 1-620): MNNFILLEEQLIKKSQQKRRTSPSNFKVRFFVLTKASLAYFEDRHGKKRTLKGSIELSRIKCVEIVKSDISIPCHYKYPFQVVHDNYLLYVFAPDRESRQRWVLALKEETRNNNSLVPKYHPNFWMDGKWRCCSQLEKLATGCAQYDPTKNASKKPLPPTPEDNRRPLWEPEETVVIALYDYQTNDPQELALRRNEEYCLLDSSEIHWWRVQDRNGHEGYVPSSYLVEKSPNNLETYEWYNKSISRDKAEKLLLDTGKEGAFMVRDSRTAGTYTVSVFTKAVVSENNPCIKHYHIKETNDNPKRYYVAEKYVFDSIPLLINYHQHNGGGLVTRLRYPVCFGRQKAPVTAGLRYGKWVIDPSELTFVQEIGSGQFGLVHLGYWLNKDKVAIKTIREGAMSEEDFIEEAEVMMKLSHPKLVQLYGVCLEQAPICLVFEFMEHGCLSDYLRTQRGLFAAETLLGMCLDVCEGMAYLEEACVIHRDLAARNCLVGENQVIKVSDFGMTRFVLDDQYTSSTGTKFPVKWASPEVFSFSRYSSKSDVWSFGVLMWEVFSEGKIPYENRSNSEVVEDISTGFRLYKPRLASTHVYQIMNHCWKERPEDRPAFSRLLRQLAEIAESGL
Method: Compounds provided herein were assayed in vitro with ITK HiBit cell lines. Compound dilution series (11-point, 5-fold dilutions in DMSO, columns 2-12 with replicate in rows A/B, C/D, E/F, G, and H at 2000× the final required concentrations were prepared in 96-well plate (Falcon, cat. no. 353077). Column 1, rows A-H were control DMSO. The 2000× solutions ranged from 2 mM to 1.024 nM (final assay concentration range 1 μM to 0.512 pM). The 2000×solutions were added to cells in 10 μL volume, for a final DMSO concentration of 0.5% and final assay compound concentration of 1×. For the cells, C-terminal HiBiT-tagged Molt4 cells (ATCC CRL-1552, monoclonal cell line clone 1C10) were plated at 1×10^6 cells/mL, 100 μL/well ([…]) in complete RPMI (10% FBS, 1% L-glutamine). The cells were incubated with compounds 1-25, 31, and 31 for 4 hrs at 32° C./6% CO2.
Following incubation, 100 μL of complete Nano-Glo HiBiT Lytic Detection Reagent (Nano-Glo HiBiT Lytic Buffer with 1:50 Nano-Glo HiBiT Lytic Substrate and 1:100 LgBiT Protein; Promega cat. no. N3O40) was added. Cells were further incubated for 10 min at room temperature. Luminescence units (LU) were read on an EnVision plate reader (Perkin Elmer, 0.1 sec per well). Percent ITK remaining per sample was calculated as follows: […]
Using Graphpad Prism, % ITK remaining values were plotted as a function of compound concentration. To determine DC50 and Dmax values, resulting curves were fit to the Prism curve-fitting equation “log(inhibitor) vs response−Variable slope (four parameters)” (reported best fit value IC50 used as DC50). ITK was measured with antibody-based MSD (Meso-Scale Discovery) assays shown below.

[2] = Mouse PK analysis, plasma concentration by LC/MS/MS after oral administration; format: in vivo; conditions: mice; for concentration at 2 h: timepoint 2 h; for concentration at 6 h: timepoint 6 h
Method: Mouse PK Analysis Compounds 17 and 18 were administered to mice orally. After six hours or twenty-four hours, splenocyte cells were harvested. ITK was evaluated by Western blotting. Plasma concentrations were determined by LC/MS/MS. Plasma samples were protein precipitated by addition of 100 μl of acetonitrile containing 50 ng/ml of internal standard. The resulting mixture was vortexed and centrifuged at 4000 rpm for five minutes. An aliquot of the resultant supernatant (75 μl) was added to 75 μl of 0.1% formic acid in water to constitute the final sample for injection. Samples were injected on a Shimadzu Exion LC Binary Gradient AD Pump HLPC system connected to a Sciex QTRAP 6500+ mass spectrometer. 5 μL of sample was injected onto a Waters Acquity UPLC BEH C18 column 130A (2.1×30 mm, […]) at 40° C. utilizing a flow rate of 700 μL/minute.
Mobile Phase A was 0.1% formic acid in water and mobile phase B was 0.1% formic acid in acetonitrile. A linear gradient of 15-95% B over 1.0 minute was used. The mass spectrometer was operated in positive ion electrospray mode with multiple reaction monitoring for maximum sensitivity. Sciex Analyst software (version 1.6.3) was used for LC/MS/MS instrument control and acquisition. Compound concentration was determined against a standard curve of internal standard versus compound peak area ratio. Noncompartmental PK parameters were determined using Phoenix 32 software (version 8.2.0.4383) from Certara. Plasma concentrations from the LC/MS/MS analyses, dose, route of administration, and desired units were utilized for PK parameter calculations.

[3] = target: T2, ITK (Jurkat or Molt4 cells) (Homo sapiens, UniProt Q08881); assay: ITK Degradation MSD (Meso Scale Discovery) Assay; format: cell-based; conditions: 4 or 6 hrs incubation; for DC50: best fit IC50 used as DC50
T2 construct: either human Jurkat (Clone E6-1 ATCC TIB-152) or Motl4 (ATCC CRL-1552), were plated; endogenous in cells; host or cells: Jurkat Clone E6-1 (ATCC TIB-152) or Molt4 (ATCC CRL-1552)
T2 sequence (Q08881 1-620): T1 sequence (Q08881 1-620)
Procedure, shortened: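 Jurkat or Molt4 cells at 1×10^6 cells/mL in RPMI/10% FBS treated 4 or 6 hr at 32° C with 7-point, 5-fold compound dilutions (0.5% DMSO). Lysate ITK quantified by MSD sandwich ECL immunoassay; % ITK remaining fitted by four-parameter curve, IC50 taken as DC50, plus Dmax.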

A DC50 [1] of 6.61 nM was found for Cc1ncsc1-c1ccc([C@H](C)NC(=O)[C@@H]2C[C@@H](O)CN2C(=O)[C@@H](NC(=O)CCN2CCC(CCC(=O)N3CC([C@@H](c4ccccc4)n4cc(NC(=O)c5n[nH]c6c5C[C@@H]5C(F)(F)[C@]5(C)C6)cn4)C3)CC2)C(C)(C)C)cc1 [Compound 26, (4aS,5aR)-5,5-difluoro-N-(1-((S)-(1-(3-(1-(3-(((S)-1-((2S,4R)-4-hydroxy-2-(((S)-1-(4-(4-methylthiazol-5-yl)phenyl)ethyl)carbamoyl)pyrrolidin-1-yl)-3,3-dimethyl-1-oxobutan-2-yl)amino)-3-oxopropyl)piperidin-4-yl)propanoyl)azetidin-3-yl)(phenyl)methyl)-1H-pyrazol-4-yl)-5a-methyl-1,4,4a,5,5a,6-hexahydrocyclopropa[f]indazole-3-carboxamide] in this work.

A concentration at 2 h [2] of 1.8 nM, a concentration at 6 h [2] of 4.5 nM and a Dmax [3] of 95.7% were found for Cc1ncsc1-c1ccc(CNC(=O)[C@@H]2C[C@@H](O)CN2C(=O)[C@@H](NC(=O)C2(F)CC2)C(C)(C)C)c(OCCOCCC(=O)N2CC([C@@H](c3ccccc3)n3cc(NC(=O)c4n[nH]c5c4C[C@@H]4C(F)(F)[C@]4(C)C5)cn3)C2)c1 [Compound 17, (4aS,5aR)-5,5-difluoro-N-(1-((S)-(1-(3-(2-(2-(((2S,4R)-1-((S)-2-(1-fluorocyclopropane-1-carboxamido)-3,3-dimethylbutanoyl)-4-hydroxypyrrolidine-2-carboxamido)methyl)-5-(4-methylthiazol-5-yl)phenoxy)ethoxy)propanoyl)azetidin-3-yl)(phenyl)methyl)-1H-pyrazol-4-yl)-5a-methyl-1,4,4a,5,5a,6-hexahydrocyclopropa[f]indazole-3-carboxamide] in this work. The DC50 [3] was 4.51 nM.

A concentration at 2 h [2] of 6.1 nM, a concentration at 6 h [2] of 16.2 nM and a Dmax [3] of 95.1% were found for Cc1ncsc1-c1ccc(CNC(=O)[C@@H]2C[C@@H](O)CN2C(=O)[C@@H](NC(=O)C2(F)CC2)C(C)(C)C)c(OCCCCCC(=O)N2CC([C@@H](c3ccccc3)n3cc(NC(=O)c4n[nH]c5c4C[C@@H]4C(F)(F)[C@]4(C)C5)cn3)C2)c1 [Compound 18, (4aS,5aR)-5,5-difluoro-N-(1-((S)-(1-(6-(2-(((2S,4R)-1-((S)-2-(1-fluorocyclopropane-1-carboxamido)-3,3-dimethylbutanoyl)-4-hydroxypyrrolidine-2-carboxamido)methyl)-5-(4-methylthiazol-5-yl)phenoxy)hexanoyl)azetidin-3-yl)(phenyl)methyl)-1H-pyrazol-4-yl)-5a-methyl-1,4,4a,5,5a,6-hexahydrocyclopropa[f]indazole-3-carboxamide] in this work. It also gave a DC50 [3] of 1.47 nM.

A Dmax [1] of 35% was found for Cc1ncsc1-c1ccc([C@H](C)NC(=O)[C@@H]2C[C@@H](O)CN2C(=O)[C@@H](NC(=O)CCCCCCCCCC(=O)N2CC([C@@H](c3ccccc3)n3cc(NC(=O)c4n[nH]c5c4C[C@@H]4C(F)(F)[C@]4(C)C5)cn3)C2)C(C)(C)C)cc1 [Compound 27, (4aS,5aR)-5,5-difluoro-N-(1-((S)-(1-(11-(((S)-1-((2S,4R)-4-hydroxy-2-(((S)-1-(4-(4-methylthiazol-5-yl)phenyl)ethyl)carbamoyl)pyrrolidin-1-yl)-3,3-dimethyl-1-oxobutan-2-yl)amino)-11-oxoundecanoyl)azetidin-3-yl)(phenyl)methyl)-1H-pyrazol-4-yl)-5a-methyl-1,4,4a,5,5a,6-hexahydrocyclopropa[f]indazole-3-carboxamide] in this work.

A DC50 [1] of 1.41 nM and a Dmax [1] of 91% were found for Cc1ncsc1-c1ccc([C@H](C)NC(=O)[C@@H]2C[C@@H](O)CN2C(=O)[C@@H](NC(=O)CCCCCCCC(=O)N2CC([C@@H](c3ccccc3)n3cc(NC(=O)c4n[nH]c5c4C[C@@H]4C(F)(F)[C@]4(C)C5)cn3)C2)C(C)(C)C)cc1 [Compound 28, (4aS,5aR)-5,5-difluoro-N-(1-((S)-(1-(9-(((S)-1-((2S,4R)-4-hydroxy-2-(((S)-1-(4-(4-methylthiazol-5-yl)phenyl)ethyl)carbamoyl)pyrrolidin-1-yl)-3,3-dimethyl-1-oxobutan-2-yl)amino)-9-oxononanoyl)azetidin-3-yl)(phenyl)methyl)-1H-pyrazol-4-yl)-5a-methyl-1,4,4a,5,5a,6-hexahydrocyclopropa[f]indazole-3-carboxamide] in this work.

A Dmax [1] of 35% was found for Cc1ncsc1-c1ccc(CNC(=O)[C@@H]2C[C@@H](O)CN2C(=O)[C@@H](NC(=O)C2(F)CC2)C(C)(C)C)c(OC2CN(c3ccnc(N4CC([C@@H](c5ccccc5)n5cc(NC(=O)c6n[nH]c7c6C[C@@H]6C(F)(F)[C@]6(C)C7)cn5)C4)c3)C2)c1 [Compound 35, (4aS,5aR)-5,5-difluoro-N-(1-((S)-(1-(4-(3-(2-(((2S,4R)-1-((S)-2-(1-fluorocyclopropane-1-carboxamido)-3,3-dimethylbutanoyl)-4-hydroxypyrrolidine-2-carboxamido)methyl)-5-(4-methylthiazol-5-yl)phenoxy)azetidin-1-yl)pyridin-2-yl)azetidin-3-yl)(phenyl)methyl)-1H-pyrazol-4-yl)-5a-methyl-1,4,4a,5,5a,6-hexahydrocyclopropa[f]indazole-3-carboxamide] in this work.

A DC50 [1] of 19.7 nM and a Dmax [1] of 84% were found for Cc1ncsc1-c1ccc([C@H](C)NC(=O)[C@@H]2C[C@@H](O)CN2C(=O)[C@@H](NC(=O)CCCCCC(=O)N2CC([C@@H](c3ccccc3)n3cc(NC(=O)c4n[nH]c5c4C[C@@H]4C(F)(F)[C@]4(C)C5)cn3)C2)C(C)(C)C)cc1 [Compound 29, (4aS,5aR)-5,5-difluoro-N-(1-((S)-(1-(7-(((S)-1-((2S,4R)-4-hydroxy-2-(((S)-1-(4-(4-methylthiazol-5-yl)phenyl)ethyl)carbamoyl)pyrrolidin-1-yl)-3,3-dimethyl-1-oxobutan-2-yl)amino)-7-oxoheptanoyl)azetidin-3-yl)(phenyl)methyl)-1H-pyrazol-4-yl)-5a-methyl-1,4,4a,5,5a,6-hexahydrocyclopropa[f]indazole-3-carboxamide] in this work.
